Assay results published in US4337199A, “Antibiotic β-lactam compounds, production thereof, and their use as antimicrobial agent” (Sanraku-Ocean Co., Ltd., priority 1978, dated 1982).
Converted amounts (≈) assume the structure as drawn.

Tests used:
[1] = tested on: Staphylococcus aureus Smith strain; assay: Infection treating test; assay type: in vivo, Staphylococcus aureus (in ddy male mice); conditions: sc, 2 h, mice infected intraperitoneally, 5×10^5 cells per mouse, subcutaneous, two hours after infection, read-out: CD50 (the source's name)
Description: The in vivo activities of the compounds of formula (I-d) were determined by using mice (five per group, ddy male mice, Shizuoka) which had been intraperitoneally infected with Staphylococcus aureus Smith strain in an amount of 5×10^5 cells per mouse. Two hours after the infection, an injection containing a sodium salt of each of the compounds of formula (I-d) was subcutaneously administered to the mice.

[2] = tested on: Pseudomonas aeruginosa IFO3445; assay: minimum inhibitory concentration, agar dilution assay; assay type: cell-based; conditions: IFO3445, agar dilution, 35° C., 20 hours, read-out: minimum inhibitory concentration
Outline: (§1)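 Two-fold dilutions of compound in sterile water were mixed into molten brain heart infusion agar at about 60 °C. Plates were inoculated with Trypto-Soy broth cultures (35 °C, 18–20 h) diluted to approximately 10^8 cells/ml. After 20 h at 35 °C, MIC was taken as the lowest concentration showing no growth.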

[3] = tested on: Enterobacter aerogenes E19; assay: as above; assay type: cell-based; conditions: Klebsiella aerogenes, E19; agar dilution, 35° C., 20 hours; read-out: minimum inhibitory concentration
Outline: as §1

[4] = tested on: Staphylococcus epidermidis; assay: as above; assay type: cell-based; conditions: agar dilution, 35° C., 20 hours, read-out: minimum inhibitory concentration
Outline: as §1

Proteus sp. P22 = assay: as above; assay type: cell-based; conditions: agar dilution, 35° C., 20 hours; read-out: minimum inhibitory concentration
Outline: as §1

Proteus mirabilis P6 = assay: as above; assay type: cell-based; conditions: P6, agar dilution, 35° C., 20 hours, read-out: minimum inhibitory concentration
Outline: as §1

Enterobacter sp. E8 = assay: as above; assay type: cell-based; conditions: SP.E8, agar dilution, 35° C., 20 hours, read-out: minimum inhibitory concentration
Outline: as §1

[5] = tested on: Staphylococcus aureus Russell; assay: as above; assay type: cell-based; conditions: agar dilution, 35° C., 20 hours, read-out: minimum inhibitory concentration
Outline: as §1

[6] = tested on: Pseudomonas aeruginosa NCTC10490; assay: as above; assay type: cell-based; conditions: NCTC10490, agar dilution, 35° C., 20 hours, read-out: minimum inhibitory concentration
Outline: as §1

Alcaligenes faecalis A 1 = assay: as above; assay type: cell-based; conditions: A1, agar dilution, 35° C., 20 hours, read-out: minimum inhibitory concentration
Outline: as §1

Escherichia coli RGN 823 = assay: as above; assay type: cell-based; conditions: RGN823, agar dilution, 35° C., 20 hours, read-out: minimum inhibitory concentration
Outline: as §1

Proteus vulgaris GN76 = assay: as above; assay type: cell-based; conditions: GN76, agar dilution, 35° C., 20 hours, read-out: minimum inhibitory concentration
Outline: as §1

Serratia marcescens T55 = assay: as above; assay type: cell-based; conditions: T55, agar dilution, 35° C., 20 hours, read-out: minimum inhibitory concentration
Outline: as §1

Proteus rettgeri P7 = assay: as above; assay type: cell-based; conditions: Providencia rettgeri, P7; agar dilution, 35° C., 20 hours; read-out: minimum inhibitory concentration
Outline: as §1

Enterobacter cloacae 45 = assay: as above; assay type: cell-based; conditions: Enterobacter cloacae, 45; agar dilution, 35° C., 20 hours; read-out: minimum inhibitory concentration
Outline: as §1

[7] = tested on: Bacillus subtilis ATCC 6633; assay: as above; assay type: cell-based; conditions: ATCC6633, agar dilution, 35° C., 20 hours, read-out: minimum inhibitory concentration
Outline: as §1

Providencia sp. P8 = assay: as above; assay type: cell-based; conditions: SP.P8, agar dilution, 35° C., 20 hours, read-out: minimum inhibitory concentration
Outline: as §1

[8] = tested on: Klebsiella pneumoniae K-13; assay: as above; assay type: cell-based; conditions: K13, agar dilution, 35° C., 20 hours, read-out: minimum inhibitory concentration
Outline: as §1

Escherichia coli K-12 = assay: as above; assay type: cell-based; conditions: K12, agar dilution, 35° C., 20 hours, read-out: minimum inhibitory concentration
Outline: as §1

Sarcina lutea = assay: as above; assay type: cell-based; conditions: Micrococcus luteus; agar dilution, 35° C., 20 hours; read-out: minimum inhibitory concentration
Outline: as §1

[9] = tested on: Comamonas terrigena B-996; assay: as above; assay type: cell-based; conditions: B996, agar dilution, 35° C., 20 hours, read-out: minimum inhibitory concentration
Outline: as §1

Serratia marcescens S18 = assay: as above; assay type: cell-based; conditions: S18, agar dilution, 35° C., 20 hours, read-out: minimum inhibitory concentration
Outline: as §1

[10] = tested on: Citrobacter freundii GN 346; assay: as above; assay type: cell-based; conditions: GN346, agar dilution, 35° C., 20 hours, read-out: minimum inhibitory concentration
Outline: as §1

[11] = tested on: Staphylococcus aureus FDA 209P; assay: as above; assay type: cell-based; conditions: FDA209P, agar dilution, 35° C., 20 hours, read-out: minimum inhibitory concentration
Outline: as §1

[12] = tested on: Staphylococcus aureus Smith; assay: as above; assay type: cell-based; conditions: agar dilution, 35° C., 20 hours, read-out: minimum inhibitory concentration
Outline: as §1

[13] = tested on: Gram-positive and Gram-negative bacteria; assay: antibiotic activity (antimicrobial spectrum); assay type: cell-based; conditions: comparison in words
Description: The minimum inhibitory concentrations of the compounds of formula (I-a-1) or (I-b-1) in Tables I-1 to I-7 and the known compounds in Table I-8 on the various microorganisms shown in the above tables were measured by an agar dilution assay method using a brain heart infusion agar medium "Difco" (a product of Difco Laboratories Inc.)
A sample of the test compound was dissolved in sterile distilled water and diluted to prepare a two-fold dilution series of the compound solution. In a petri plate of 9 cm diameter, 1 ml of the compound solution was added to 9 ml of molten sterile heart infusion agar medium (Difco Laboratories Inc.) at about 60° C. to prepare the compound-containing agar plate. An overnight culture of each test organism indicated in the above table which was prepared by stationary cultivation in Trypto-Soy broth (Eiken Chemi. Co., Ltd.) at 35° C. for 18 to 20 hours, was diluted with the Trypto-Soy broth to give approximately 10^8 cells/ml and the diluted inoculum was inoculated onto the compound-containing agar plates. After cultivating the plates at 35° C. for 20 hours, the growth of the organism was observed. The minimum concentration of the compound at which no growth of the microorganism was noted was determined, and defined as the minimum inhibitory concentration of the test compound.

CC(O)C1C(=O)N2C(C(=O)O)=C(Sc3ccncc3)CC12 (stereo not drawn) [Example 60, 5,6-cis-3-(4-Pyridylthio)-6-(1-hydroxyethyl)-7-oxo-1-azabicyclo[3.2.0]hept-2-ene-2-carboxylic acid]
ED50 [1]: 0.125 mg/kg
MIC [2]: 1.56 µg/mL (≈ 5.09 µM)
MIC [3]: 1.56 µg/mL (≈ 5.09 µM)
MIC [4]: < 0.007 µg/mL
MIC (Proteus sp. P22): 50 µg/mL (≈ 163 µM)
MIC (Proteus mirabilis P6): 0.39 µg/mL (≈ 1.27 µM)
MIC (Enterobacter sp. E8): 0.025 µg/mL (≈ 0.0816 µM)
MIC [5]: < 0.007 µg/mL
MIC [6]: 1.56 µg/mL (≈ 5.09 µM)
MIC (Alcaligenes faecalis A 1): < 0.007 µg/mL
MIC (Escherichia coli RGN 823): 6.25 µg/mL (≈ 20.4 µM)
MIC (Proteus vulgaris GN76): 50 µg/mL (≈ 163 µM)
MIC (Serratia marcescens T55): 25 µg/mL (≈ 81.6 µM)
MIC (Proteus rettgeri P7): 0.78 µg/mL (≈ 2.55 µM)
MIC (Enterobacter cloacae 45): 6.25 µg/mL (≈ 20.4 µM)
MIC [7]: < 0.007 µg/mL
MIC (Providencia sp. P8): 0.2 µg/mL (≈ 0.653 µM)
MIC [8]: 25 µg/mL (≈ 81.6 µM)
MIC (Escherichia coli K-12): 0.05 µg/mL (≈ 0.163 µM)
MIC (Sarcina lutea): < 0.007 µg/mL
MIC [9]: < 0.007 µg/mL
MIC (Serratia marcescens S18): 50 µg/mL (≈ 163 µM)
MIC [10]: 6.25 µg/mL (≈ 20.4 µM)
MIC [11]: < 0.007 µg/mL
MIC [12]: < 0.007 µg/mL

CC(O)C1C(=O)N2C(C(=O)O)=C(Sc3ncccn3)CC12 (stereo not drawn) [Example 64, 5,6-cis-3-(2-Pyrimidinylthio)-6-(1-hydroxyethyl)-7-oxo-1-azabicyclo[3.2.0]hept-2-ene-2-carboxylic acid]
ED50 [1]: 0.25 mg/kg
MIC [2]: 25 µg/mL (≈ 81.3 µM)
MIC [3]: 3.13 µg/mL (≈ 10.2 µM)
MIC [4]: 0.025 µg/mL (≈ 0.0813 µM)
MIC (Proteus sp. P22): 25 µg/mL (≈ 81.3 µM)
MIC (Proteus mirabilis P6): 0.78 µg/mL (≈ 2.54 µM)
MIC (Enterobacter sp. E8): 0.013 µg/mL (≈ 0.0423 µM)
MIC [5]: 0.013 µg/mL (≈ 0.0423 µM)
MIC [6]: 25 µg/mL (≈ 81.3 µM)
MIC (Alcaligenes faecalis A 1): 0.05 µg/mL (≈ 0.163 µM)
MIC (Escherichia coli RGN 823): 1.56 µg/mL (≈ 5.08 µM)
MIC (Proteus vulgaris GN76): 6.25 µg/mL (≈ 20.3 µM)
MIC (Serratia marcescens T55): 12.5 µg/mL (≈ 40.7 µM)
MIC (Proteus rettgeri P7): 1.56 µg/mL (≈ 5.08 µM)
MIC (Enterobacter cloacae 45): 12.5 µg/mL (≈ 40.7 µM)
MIC [7]: < 0.007 µg/mL
MIC (Providencia sp. P8): 0.2 µg/mL (≈ 0.651 µM)
MIC [8]: 25 µg/mL (≈ 81.3 µM)
MIC (Escherichia coli K-12): 0.1 µg/mL (≈ 0.325 µM)
MIC (Sarcina lutea): < 0.007 µg/mL
MIC [9]: < 0.007 µg/mL
MIC (Serratia marcescens S18): 12.5 µg/mL (≈ 40.7 µM)
MIC [10]: 6.25 µg/mL (≈ 20.3 µM)
MIC [11]: < 0.007 µg/mL
MIC [12]: 0.025 µg/mL (≈ 0.0813 µM)

CC(=O)NCCSC1=C(C(=O)O)N2C(=O)C(C(C)O)C2C1 (stereo not shown) [PS-3, 3-(2-acetamidoethylthio)-6-(1-hydroxyethyl)-7-oxo-1-azabicyclo[3.2.0]hept-2-ene-2-carboxylic acid]
antibiotic activity (in words) [13]: better antibiotic activity than cephazolin (CEZ)

CC(=O)NCCSC1=C(C(=O)O)N2C(=O)C(C(C)O)C2C1 (stereo not shown) [PS-3B . Na, reference compound]
ED50 [1]: 2 mg/kg

CC(O)[C@H]1C(=O)N2C(C(=O)O)=C(SCCO)C[C@H]12 (stereo partly shown) [R1 --OH*, R21 --CH2 CH2 OH]
MIC [2]: 12.5 µg/mL (≈ 45.7 µM)
MIC [3]: 12.5 µg/mL (≈ 45.7 µM)
MIC [4]: 3.13 µg/mL (≈ 11.5 µM)
MIC (Proteus sp. P22): 100 µg/mL (≈ 366 µM)
MIC (Proteus mirabilis P6): 50 µg/mL (≈ 183 µM)
MIC (Enterobacter sp. E8): 6.25 µg/mL (≈ 22.9 µM)
MIC [5]: 3.13 µg/mL (≈ 11.5 µM)
MIC [6]: 12.5 µg/mL (≈ 45.7 µM)
MIC (Alcaligenes faecalis A 1): 6.25 µg/mL (≈ 22.9 µM)
MIC (Escherichia coli RGN 823): 12.5 µg/mL (≈ 45.7 µM)
MIC (Proteus vulgaris GN76): 50 µg/mL (≈ 183 µM)
MIC (Serratia marcescens T55): 50 µg/mL (≈ 183 µM)
MIC (Proteus rettgeri P7): 50 µg/mL (≈ 183 µM)
MIC (Enterobacter cloacae 45): 6.25 µg/mL (≈ 22.9 µM)
MIC [7]: 6.25 µg/mL (≈ 22.9 µM)
MIC (Providencia sp. P8): 6.25 µg/mL (≈ 22.9 µM)
MIC [8]: 25 µg/mL (≈ 91.5 µM)
MIC (Escherichia coli K-12): 3.13 µg/mL (≈ 11.5 µM)
MIC (Sarcina lutea): 1.56 µg/mL (≈ 5.71 µM)
MIC [9]: 0.1 µg/mL (≈ 0.366 µM)
MIC (Serratia marcescens S18): 25 µg/mL (≈ 91.5 µM)
MIC [10]: 12.5 µg/mL (≈ 45.7 µM)
MIC [11]: 0.39 µg/mL (≈ 1.43 µM)
MIC [12]: 3.13 µg/mL (≈ 11.5 µM)

CCC1C(=O)N2C(C(=O)O)=C(SCCO)CC12 (stereo not shown) [R1 H, R21 --CH2 CH2 OH, sodium 3-(2-hydroxyethylthio)-6-ethyl-7-oxo-1-azabicylo[3.2.0]hept-2-ene-2-carboxylate]
MIC [2]: 12.5 µg/mL
MIC [3]: 3.13 µg/mL
MIC [4]: 0.2 µg/mL
MIC (Proteus sp. P22): 50 µg/mL
MIC (Proteus mirabilis P6): 12.5 µg/mL
MIC (Enterobacter sp. E8): 3.13 µg/mL
MIC [5]: 0.2 µg/mL
MIC [6]: 12.5 µg/mL
MIC (Alcaligenes faecalis A 1): 1.56 µg/mL
MIC (Escherichia coli RGN 823): 12.5 µg/mL
MIC (Proteus vulgaris GN76): 25 µg/mL
MIC (Serratia marcescens T55): 12.5 µg/mL
MIC (Proteus rettgeri P7): 12.5 µg/mL
MIC (Enterobacter cloacae 45): 6.25 µg/mL
MIC [7]: 0.1 µg/mL
MIC (Providencia sp. P8): 3.13 µg/mL
MIC [8]: 12.5 µg/mL
MIC (Escherichia coli K-12): 3.13 µg/mL
MIC (Sarcina lutea): 0.1 µg/mL
MIC [9]: 0.025 µg/mL
MIC (Serratia marcescens S18): 6.25 µg/mL
MIC [10]: 3.13 µg/mL
MIC [11]: 0.05 µg/mL
MIC [12]: 0.1 µg/mL
